Measurements published in US20090054368A1, “Substituted gemini surfactant compounds” (University of Saskatchewan, priority 2007, published 2009).
“Also recorded” adds a separate entry of the source.

What was measured:
[1] = Small angle X-ray scattering (SAXS) of plasmid DNA-gemini surfactant-DOPE complexes; type: physicochemical; details: plasmid DNA-gemini surfactant-DOPE complexes
Experimental: SAXS measurements were carried out at beamline X21 at the National Synchrotron Light Source at Brookhaven National Laboratory. Beamline X21 is based on a wiggler source, with a helium gas-cooled Si(111) monochromator selecting the photon energy. The X-ray beam is focused by a toroidal mirror into the experimental station. Three pairs of precision slits, positioned at 4 m, 1 m, and 5 cm upstream of the sample, define the beam. The scattering pattern is recorded using a 13 cm Mar CCD detector (Mar USA, Evanston, Ill.) located 1.26 m (calibrated with the scattering pattern of silver behenate) downstream of the sample. The measurements were performed with 12 KeV x-rays and the data covered a q-range from 0.008 Å^−1 to 0.375 Å^−1. All beam paths are under vacuum, except at the sample position, where the sample is in air, and kapton windows terminate the vacuum beam paths. Samples were loaded into 1.5 mm capillaries (Charles Supper #15-BG, Natick Mass.) and data recorded at room temperature. All spectra were processed to remove background contributions by subtracting the scattering profile obtained for a water-filled capillary. Peak fitting was carried out using the open-sources software package “fityk” (available at http://www.unipress.waw.pl/fityk/; last accessed on Jul. 5, 2007) using multiple Gaussian functions.
Solutions for SAXS analysis were prepared by addition of appropriate amounts of stock surfactant, DNA, and DOPE solutions, followed by sonication (to ensure complete mixing) where appropriate. The pGTmCMV.IFN-GFP plasmid DNA was used in the SAXS studies. The final concentrations of DNA and DOPE were 0.075 mM (50 μg/mL) and 1.00 mM (0.75 mg/mL), respectively. The concentration of gemini surfactant was adjusted as needed to obtain the desired 1:10 DNA:surfactant charge ratio. Preliminary x-ray scattering studies indicated these concentrations to be too dilute to give good scattering signals; as a result, the samples were concentrated 5× by evaporation.

[2] = system: COS-7 African Green monkey kidney fibroblast cells; assay: Transfection assay (luciferase production after transfection with plasmid DNA-gemini surfactant complexes); type: cell-based; details: PG complexes, complexed with DNA in the absence of helper lipid (DOPE)
[3] = previous work [11]; cited from earlier work
cultured cells = assay: Viability of cells following transfection; type: cell-based; details: for cell viability / toxicity (in words): after transfection with plasmid DNA-gemini surfactant-DOPE
Experimental: Ideal transfection reagents are minimally toxic and/or disruptive to cells. Accordingly, the N-substituted surfactants were tested for toxicity in cultured cells. The viability of cells following transfection with either plasmid DNA-gemini surfactant-DOPE or Lipofectamine Plus are shown in FIG. 3. The aza-substituted surfactants 12-5N-12, 12-8N-12, and 12-7N-12 had similar toxicity compared to the Lipofectamine Plus reagent, with cell viability around 80% of the controls (i.e., no treatment or plasmid DNA alone; p>0.05).

[4] = Average membrane charge density calculation for plasmid DNA-gemini surfactant-DOPE nanoparticles; type: physicochemical; details: calculated from head group areas
plasmid DNA = assay: Circular dichroism of plasmid DNA-gemini surfactant complexes; type: physicochemical; details: with or without DOPE
Experimental: CD spectra were obtained by using an Applied Photo Physics π*180 instrument (Leatherhead, UK) with a 4 nm slit, at room temperature.
(§1) Solutions for size, zeta potential, and circular dichrosicm (CD) measurements were prepared, in larger volumes, as described above for the transfection experiments using a pGTmCMV.IFN-GFP plasmid DNA, previously constructed in our lab. Solutions containing only surfactant and plasmid DNA were prepared by addition of an aliquot of stock plasmid DNA to the gemini surfactant solution to a charge ratio of 1:10 (DNA:surfactant).

[5] = system: COS-7 African Green monkey kidney fibroblast cells; assay: Transfection assay (luciferase production after transfection with plasmid DNA-gemini surfactant complexes); type: cell-based
Experimental: COS-7 African Green monkey kidney fibroblast cells (ATCC CRL1651) were prepared for transfection in antibiotic and 10% fetal bovine serum supplemented minimal Eagle's medium (MEM). The day before transfection, 5×10^4 cells/well were seeded in 24-well plates (Greiner Labortechnik GmbH, Germany). The supplemented MEM was changed to MEM one hour prior to transfection.
The pMASIA.Luc plasmid DNA was used at a concentration of 0.2 μg/well for transfection. The transfection mixtures were prepared as follows: 0.2 μg of plasmid DNA was mixed with aliquots of gemini surfactant solution to obtain a plasmid DNA:gemini surfactant charge ratio of 1:10 and incubated at room temperature for 15 minutes. To this mixture, 25 μL of DOPE liposomes were added. The transfection mixtures were incubated for 30 minutes at room temperature prior to transfection and added to the cells, dropwise. The plates were incubated for 5 hours at 37° C. in a CO2 incubator. Dc-Chol (30-[N—(N′,N′-Dimethylaminoethane)-carbamoyl]cholesterol) was used for comparison and, as a positive control, cells were also transfected with Lipofectamine Plus™ Reagent (Invitrogen Life Technologies, Carlsbad, Calif.), according to the manufacturer's protocol, with 0.2 μg of plasmid DNA per well.
Luciferase production was quantified using the Promega Steady-Glo™ luciferase assay system. Luminescence was monitored using a Turner Biosystems (Sunnyvale, Calif., USA) Reporter microplate luminometer. Statistical analysis was performed using ANOVA and Tukey's multiple comparison test. […] Equal variances were tested using Bartlett's test, and normality by the D'Agostino & Pearson omnibus normality test.

[6] = Size (hydrodynamic radius) and zeta potential as a function of pH; type: physicochemical; details: PGL complexes
Experimental: Determinations of size (hydrodynamic radius, RH) and zeta potential (ζ) as a function of pH were carried out using a Malvern Instruments (Worcestershire, UK) ZetaSizer NanoZs with MPT-2 auto-titrator attachment. 10 mL of the desired sample was placed in the titration cell of the auto-titrator and samples were titrated (in 0.2-0.5 pH unit increments) with 0.1 M NaOH and 0.1 M HCl over the desired pH range. Size and zeta potential measurement were made in triplicate at each pH point, and the reported values represent the average±standard error. pH titrations of aqueous gemini surfactant solutions were made at a surfactant concentration of 2.00 mM, above the critical micelle concentration in all cases.
as §1

[7] = from reference [24]; cited from earlier work

For `CCCCCCCCCCCC[N+](C)(C)CCC[N+](C)(C)CCCCCCCCCCCC.[Br-].[Br-]` [12-3-12, reference compound], the “phase / morphology of lipid bilayers from scattering pattern (in words)” value [1] is listed as “predominantly hexagonal morphology”, the “transfection efficiency (in words)” value [2] is listed as “low transfection efficiency” and the “transfection efficiency within the 12-s-12 series, s=3-8 (in words)” value [3] is listed as “best transfection efficiency; also recorded: most efficient transfection agent”. For the same compound, the “cell viability / toxicity (in words)” value (cultured cells) was “not statistically different from the control”.

For `CCCCCCCCCCCC[N+](C)(C)CCCNCCC[N+](C)(C)CCCCCCCCCCCC.[Br-].[Br-]` [12-7NH-12, 1,9-bis(dodecyl)-1,1,9,9-tetramethyl-5-imino-1,9-nonanediammonium dibromide], the “d-spacing of main scattering peak” value [1] was 59.4 Å, the “transfection efficiency (in words)” value [2] was “significantly higher level of transfection efficiency” and the “membrane charge density σM” value [4] was 0.920 ×10^−2 e/Å^2. The “DNA distortion from CD spectrum (in words)” value (plasmid DNA) was “greatest DNA distortion”, the “cell viability / toxicity (in words)” value (cultured cells) was “not statistically significantly different from that of the 12-5N-12 and 12-8N-12” and the cell viability (cultured cells; after transfection with plasmid DNA-gemini surfactant-DOPE or Lipofectamine Plus, relative to controls (no treatment or plasmid DNA alone)) was “about 70%”. The “increase in transfection compared to the corresponding aza-substituted compound” value [5] was 3 fold, the “transfection efficiency (in words)” value ([5]; PGL complexes, with DOPE added) was “enhanced transfection efficiency compared to the un-substituted surfactant, 12-3-12; also recorded: higher levels of transfection efficiency compared to the non-substituted gemini surfactant 12-3-12; also recorded: comparable to that of Lipofectamine Plus” and the transfection efficiency ([5]; PGL system (plasmid DNA-gemini surfactant-DOPE), charge ratio 1:10) was 6.7±0.5 ng luciferase/2×10^4 cells. For the same compound, the “increase in transfection compared to an un-substituted gemini surfactant” value ([5]; p<0.01) was 9 fold, the “pH of transition in particle size and zeta potential” value [6] was 5.5 and the “Head group area a0” value [7] was 1.56 ± 0.04 nm^2/molecule.
